Four compounds from patent US4939142A, “Substituted styrene derivatives” (priority 1989, dated 1990) can be followed below.

The test system of data set [1] is experimental coronary insufficiency induced by vasopressine. The data set can be described thus: Antianginal effect on rats, vasopressine-induced coronary insufficiency, T-wave (Nieschultz). It counts as in vivo, male rats. The settings on record: Table IX, dose 2 mg/kg, vasopressine 1 IU/kg i.v. On the procedure: The test is carried out on male rats weighing 180-220 g. The animals are narcotized with the aid of chloralose urethane (70-700 mg/kg i.p.). ECG is registered by means of needle electrodes in standard II output. Antianginal effect is tested according to the method of Nieschultz. Experimental coronary insufficiency is induced by administering vasopressine (1 IU/kg i.v.) on 10-12 animals for each dose. The magnitude of the T-wave before and after the administration of vasopressine is measured in the treated and control groups.

A short description of another data set: in vivo. The following applies: mouse, in vivo, po. On the procedure: (§1) Male and female white mice (CFLP strain, 18-22 g) are used, 10 animals per dose. The test compounds are administered orally in a volume of 20 ml/kg. After administration the mice are observed for a period of 7 days. The animals are kept in plastic boxes, on wood litter, at room temperature. The animals receive standard mouse fodder and tap water ad libitum.

The subject of another data set is tetrabenazine ptosis. The data set can be described thus: Tetrabenazin ptosis antagonism (Hoffmeister et al.). It is filed as in vivo. The settings on record: Table III. How it is done: The test is carried out by the method of Hoffmeister et al. adapted to mice. Groups consisting of 10-20 animals are treated orally with each dose of the test compound. The control group is treated orally with the carrier. Thirty minutes later a 50 mg/kg i.p. tetrabenazine dose is administered, whereupon after 30, 60, 90 and 120 minutes the animals with closed eye-lids are counted in each group.
On the basis of all measurements an average ptosis is calculated for each group and expressed as the percentile deviation (inhibition) from the control group. On the basis of the data thus obtained ED50 values are calculated.
[Hoffmeister, F., Wuttke, W., and Kroneberg, G.: Arzneim. Forsch. (Drug.

Another data set concerns hexobarbital narcosis. In words: Hexobarbital narcosis potentiating effect.
In another data set the test system is ulcus secretion. In words: animal or person. It counts as in vivo. How it is done:
The test is carried out according to the method of Nakamura on rats (Wistar strain) weighing 150-230 g and fasted for 48 hours. Each animal group consists of 4 male and 4 female rats. On the day of the experiment the pylorus of the animals is bound and the corresponding dose of the test compound is administered orally immidiately after operation. The animals are killed with ether 5 hours after the operation, their stomach is removed, cut along the large curve and placed on plastic plates.

Another data set concerns motility. In words: animal or person. It counts as in vivo. How it is done:
The test is accomplished according to the method of Borsy et al. in a 10-channel Dews system equipment, whereby 3 mice are used per channel. The test compound or the carrier, respectively, is administered orally, and one hour after the said treatment the animals are placed into the apparatus and the number of the interruptions of infrared radiation is registered for 30 minutes.
The results are summarized in Table II and documented by means of suitable statistics for each experiment.
[J. Borsy, E. Csanyi, I. Lazar: Arch. Int. Pharmacodyn. 124, 1 (1960)].

The next data set deals with mice. The data set can be described thus: in vivo. The following applies: oral, mice, 10080 min. How it is done:
as §1

The test system of another data set is pentetrazole spasm. In words: Inhibition of pentetrazol spasm on mice.

Bounds are passed on as bounds.

Experimental for hexobarbital narcosis: The test is carried out on white mice. Groups consisting of six mice are used for each dose and test compound. The test compound is administered orally and an hour after this treatment narcosis is induced by means of a 40 mg/kg i.v. dose of hexobarbital. The control group receives carrier instead of the test compound.
Those mice are considered to be having a positive reaction which show a narcosis time at least 2.5 times longer than that of the control group. The ED50 values thus transformed are calculated.
Experimental for pentetrazole spasm: The modified method of Benziger and Hane is used on white mice. Groups consisting of 6 animals are used for each dose. […] The test compounds are administered orally one hour before the treatment with pentetrazole; in the control group the animals obtain the carrier orally at the same points of time.
The therapeutical index data disclosed in the above Tables are calculated by means of the following equation: [formula]

`CC1(C)CC(/C=C/c2ccc(Cl)cc2)=CC(=N/OCCCN2CCN(Cc3ccccc3)CC2)/C1` [Example 20, 5,5-Dimethyl-3-(E)-[(4'-chloro-phenyl)-vinyl]-1-(E)-(4"-phenyl-methyl-1"-piperazinyl-propoxyimino)-2-cyclohexene]: in data set [1], the Inhibition % was -54.4%. Further, the LD50 (commonly the dose expected to kill half of the subjects tested) at 168 h in the data set “in vivo” is 2000 mg/kg. It took a dose of 8.5 mg/kg to reach the 50% effect level in the data set on tetrabenazine ptosis (Mus musculus, oral, 30 min before tetrabenazin 50 mg/kg i.p.) (ED50). Besides, the Therapeutical index in the data set with tetrabenazine ptosis (tetrabenazin ptosis, LD50/ED50) is listed as 235.3.
Take `CC1(C)CC(/C=C/c2cccc(Cl)c2)=CC(=N/OCCN2CCOCC2)/C1` [Example 28, 5,5-Dimethyl-3-(E)-[(3'-chloro-phenyl)-vinyl]-1-(E)-(N-morpholino-ethoxyimino)-2-cyclohexene]: in data set [1], the Inhibition % is reported as -31%.
Turning to `COc1cccc(/C=C/C2=CC(=N/OCCCN3CCOCC3)/CC(C)(C)C2)c1` [Example 30, 5,5-Dimethyl-3-(E)-[(3'-methoxy-phenyl)-vinyl]-1-(E)-(N-morpholino-propoxyimino)-2-cyclohexene], the median effective dose (ED50) (as a rule, the midpoint of the dose-response relation) with hexobarbital narcosis (Mus musculus, po) was 21.5 mg/kg; with ulcus secretion (Rattus norvegicus, po, 5 h) it was ~150 mg/kg; in the data set with motility (Mus musculus, po), ~200 mg/kg. Besides, the “Therapeutical index LD50 /ED50” value in the data set on hexobarbital narcosis (Table I, hexobarbital narcosis) was > 93.0. Also, the Therapeutical index entry was “above 13.3” in the data set with ulcus secretion (Table X, ulcus secretion, LD50/ED50) and > 10.0 in the data set on motility (Table II, motility inhibition, LD50/ED50). Further, the Inhibition % in data set [1] is on record as -45%. Also, the LD50 with mice (Table I) and with mice (Table II) was > 2000 mg/kg throughout. Further, the LD50 at 168 h in the data set “in vivo” is > 2000 mg/kg.
`COc1ccccc1/C=C/C1=CC(=N/OCCN2CCCCC2)/CC(C)(C)C1` [Example 33, 5,5-Dimethyl-3-(E)-[(2'-methoxy-phenyl)-vinyl]-1-(E)-(N-piperidinyl-ethoxyimino)-cyclohexene]: the Inhibition % in data set [1] is -47.1%. Moreover, the LD50 at 168 h in the data set “in vivo” was > 1000 mg/kg. Besides, it took a dose of 63 mg/kg to reach the 50% effect level in the data set with pentetrazole spasm (Mus musculus, po) (ED50). For the same compound, in the data set with pentetrazole spasm (Table V, pentetrazole spasm, LD50/ED50), the Therapeutical index is > 15.9.
